This is an account of results in patent US20230322747A1, “OXADIAZOLE HDAC6 INHIBITORS AND USES THEREOF” (Eikonizo Therapeutics, Inc., priority 2022, published 2023).

In the assay the target is Human HDAC6 (Homo sapiens (Human), UniProt Q9UBN7). As to the kind of experiment: HDAC6 enzymatic activity assay (Caliper endpoint or fluorogenic format). It is filed as biochemical. The note with it: in vitro enzymatic.
Human HDAC6, sequence (Q9UBN7 whole entry): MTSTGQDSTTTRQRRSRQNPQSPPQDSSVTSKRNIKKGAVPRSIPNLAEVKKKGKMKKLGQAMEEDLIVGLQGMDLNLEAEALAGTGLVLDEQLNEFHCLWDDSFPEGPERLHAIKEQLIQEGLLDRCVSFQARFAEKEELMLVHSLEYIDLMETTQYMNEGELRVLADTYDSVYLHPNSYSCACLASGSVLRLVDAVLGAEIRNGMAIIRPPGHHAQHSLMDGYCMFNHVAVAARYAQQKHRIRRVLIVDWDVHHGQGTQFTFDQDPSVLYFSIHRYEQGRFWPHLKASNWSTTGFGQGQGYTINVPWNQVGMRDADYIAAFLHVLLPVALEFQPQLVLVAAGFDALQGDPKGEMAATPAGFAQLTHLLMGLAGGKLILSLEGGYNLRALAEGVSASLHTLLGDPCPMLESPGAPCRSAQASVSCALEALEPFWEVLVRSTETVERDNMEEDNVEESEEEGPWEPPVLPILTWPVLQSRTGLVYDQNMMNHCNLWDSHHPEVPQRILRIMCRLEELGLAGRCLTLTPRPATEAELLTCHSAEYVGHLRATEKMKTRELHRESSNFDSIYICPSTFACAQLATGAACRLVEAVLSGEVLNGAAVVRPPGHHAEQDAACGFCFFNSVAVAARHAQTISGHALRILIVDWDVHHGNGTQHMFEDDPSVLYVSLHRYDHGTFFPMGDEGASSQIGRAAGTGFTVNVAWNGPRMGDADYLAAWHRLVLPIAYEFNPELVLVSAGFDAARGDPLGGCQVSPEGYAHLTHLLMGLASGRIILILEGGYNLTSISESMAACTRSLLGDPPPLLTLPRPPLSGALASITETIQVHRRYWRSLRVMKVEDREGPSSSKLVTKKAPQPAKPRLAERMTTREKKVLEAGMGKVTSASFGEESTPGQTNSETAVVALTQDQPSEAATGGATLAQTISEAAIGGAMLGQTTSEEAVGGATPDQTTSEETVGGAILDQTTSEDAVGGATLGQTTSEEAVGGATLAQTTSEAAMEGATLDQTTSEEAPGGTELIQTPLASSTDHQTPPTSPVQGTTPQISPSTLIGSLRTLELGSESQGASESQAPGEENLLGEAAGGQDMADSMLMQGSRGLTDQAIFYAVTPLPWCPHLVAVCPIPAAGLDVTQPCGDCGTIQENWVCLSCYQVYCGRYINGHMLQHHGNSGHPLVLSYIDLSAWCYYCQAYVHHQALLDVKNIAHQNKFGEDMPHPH
Molecule `CC(Oc1ccc(F)cc1)c1ccc(-c2nnc(C(F)F)o2)cn1` (centres unmarked) [AAA, 2-(Difluoromethyl)-5-(6-(1-(4-fluorophenoxy)ethyl)pyridin-3-yl)-1,3,4-oxadiazole] returned an IC50 of 1000 to 10000 nM.

Consider `FC(F)c1nnc(-c2ccc(C(F)(F)Oc3cccc4ccccc34)nc2)o1` [Compound 14, 2-(6-(difluoro(naphthalen-1-yloxy)methyl)pyridin-3-yl)-5-(difluoromethyl)-1,3,4-oxadiazole], for which the IC50 lay in the range of 100 to 1000 nM. `Fc1ccc(OCc2ncc(-c3nnc(C(F)F)o3)cn2)cc1F` [Compound 22] gave an IC50 of 1 to 100 nM. As for `FC(F)c1nnc(-c2ccc(COCC3CC4CCC(C3)N4)nc2)o1` (centres unmarked) [Compound 23], the IC50 lay within 100 to 1000 nM. On to `CN1C[C@@]2(COCc3ccc(-c4nnc(C(F)F)o4)cn3)C[C@@H]1CO2` [Compound 25], for which the IC50 lay in the range of 100 to 1000 nM. Molecule `FC(F)c1nnc(-c2ccc(COc3cccc4ccncc34)nc2)o1` [Compound 33] showed an IC50 of 1 to 100 nM. In the case of `Cc1nc2ccc(OCc3ccc(-c4nnc(C(F)F)o4)cn3)cc2o1` [Compound 38], the IC50 was in the range of 1 to 100 nM. `Cn1ccc(OCc2ccc(-c3nnc(C(F)F)o3)cn2)n1` [Compound 66]: the IC50 was 1 to 100 nM. Turning to `FC(F)c1nnc(-c2ccc(COc3ncccn3)nc2)o1` [Compound 78], the IC50 lay in the range of 100 to 1000 nM. In turn, `Cc1ncc(F)c(OCc2ccc(-c3nnc(C(F)F)o3)cn2)n1` [Compound 81] yielded an IC50 of 1 to 100 nM. With `FC(F)c1nnc(-c2ccc(COc3nccn4ccnc34)nc2)o1` [Compound 86, 2-(difluoromethyl)-5-(6-((imidazo[1,2-a]pyrazin-8-yloxy)methyl)pyridin-3-yl)-1,3,4-oxadiazole], the IC50 was in the range of 1 to 100 nM.

The molecule `FC(F)c1nnc(-c2ccc(COc3nnc4ccccn34)nc2)o1` [Compound 87] had a concentration for half-maximal inhibition (IC50) of 1 to 100 nM. On to `Cc1ccc2nnc(OCc3ccc(-c4nnc(C(F)F)o4)cn3)n2c1` [Compound 89], for which the IC50 fell in the range of 1 to 100 nM. `FC(F)c1nnc(-c2ccc(COc3ccc(C(F)(F)F)cn3)nc2)o1` [Compound 94] displayed an IC50 of 100 to 1000 nM.

`Cc1ccc2ncnc(OCc3ccc(-c4nnc(C(F)F)o4)cn3)c2c1` [Compound 95]: the IC50 is 1 to 100 nM.

`Cc1cccc2c(OCc3ccc(-c4nnc(C(F)F)o4)cn3)ncnc12` [Compound 96]: the IC50 lay within 1 to 100 nM.

For the molecule `FC(F)c1nnc(-c2ccc(COc3ncnc4cc(Cl)ccc34)nc2)o1` [Compound 98], the IC50 fell in the range of 1 to 100 nM.

Regarding `FC(F)c1nnc(-c2ccc(COc3ncco3)nc2)o1` [Compound 100], the IC50 fell in the range of 100 to 1000 nM. Take `FC(F)c1nnc(-c2ccc(COc3cccnn3)nc2)o1` [Compound 103]: the IC50 was in the range of 100 to 1000 nM. Under `FC(F)c1nnc(-c2ccc(COc3ccncn3)nc2)o1` [Compound 104] stands 1 to 100 nM; under `Cn1ccnc1OCc1ccc(-c2nnc(C(F)F)o2)cn1` [Compound 105], 100 to 1000 nM. As for `Fc1cncnc1OCc1ccc(-c2nnc(C(F)F)o2)cn1` [Compound 107], the 50% inhibitory concentration (IC50) fell in the range of 1 to 100 nM. As to `FC(F)c1nnc(-c2ccc(COC3CC4CCC(C3)O4)nc2)o1` (centres unmarked) [Compound 109], the IC50 fell in the range of 100 to 1000 nM.

Take `FC(F)c1nnc(-c2ccc(CO[C@@H]3C[C@H]4CC[C@@H](C3)O4)nc2)o1` [Compound 110]: the IC50 lay in the range of 100 to 1000 nM. The molecule `CN1[C@@H]2CC[C@H]1C[C@H](OCc1ccc(-c3nnc(C(F)F)o3)cn1)C2` [Compound 113] gave an IC50 of 1000 to 10000 nM. Regarding `N#Cc1ccc(COCc2ccc(-c3nnc(C(F)F)o3)cn2)s1` [Compound 120], the IC50 lay in the range of 100 to 1000 nM. Take `CN1CCc2cc(OCc3ccc(-c4nnc(C(F)F)o4)cn3)ccc2C1` [Compound 121]: the IC50 was 100 to 1000 nM. On to `Fc1cc(-c2nnc(C(F)F)o2)cnc1COc1cccn2ccnc12` [Compound 123], for which the IC50 lay in the range of 1 to 100 nM. On to `Fc1cc(-c2nnc(C(F)F)o2)cnc1COc1ccc2cccnc2c1` [Compound 124], for which the IC50 is 1 to 100 nM.

In turn, `Fc1cc(-c2nnc(C(F)F)o2)cnc1COc1cccc2cnccc12` [Compound 125] had an IC50 of 1 to 100 nM.

Consider `Fc1cc(-c2nnc(C(F)F)o2)cnc1COc1cccc2ccncc12` [Compound 126], for which the IC50 was 1 to 100 nM. In turn, `N#Cc1ccccc1OCc1ncc(-c2nnc(C(F)F)o2)cc1F` [Compound 127] came in with an IC50 of 1 to 100 nM. In turn, `C#Cc1cccc(OCc2ncc(-c3nnc(C(F)F)o3)cc2F)c1` [Compound 128] displayed a 50% inhibitory concentration (IC50) of 1 to 100 nM. The value for `Fc1ccc(OCc2ncc(-c3nnc(C(F)F)o3)cc2F)cc1F` [Compound 129] was 1 to 100 nM; that for `Fc1cc(-c2nnc(C(F)F)o2)cnc1COc1cccc2cccnc12` [Compound 130] was 1 to 100 nM. The value for `Fc1ccc(OCc2ncc(-c3nnc(C(F)F)o3)cc2F)c(F)c1` [Compound 131] was 1 to 100 nM; that for `Fc1cc(-c2nnc(C(F)F)o2)cnc1COc1cccc2ncccc12` [Compound 132] was 1 to 100 nM. The molecule `Cc1noc2cccc(OCc3ncc(-c4nnc(C(F)F)o4)cn3)c12` [Compound 134] showed an IC50 of 1 to 100 nM.

As to `Cc1noc2cc(OCc3ncc(-c4nnc(C(F)F)o4)cn3)ccc12` [Compound 136], the IC50 was in the range of 1 to 100 nM. Consider `Cc1noc2cc(OCc3ncc(-c4nnc(C(F)F)o4)cc3F)ccc12` [Compound 137, 6-((5-(5-(difluoromethyl)-1,3,4-oxadiazol-2-yl)-3-fluoropyridin-2-yl)methoxy)-3-methylbenzo[d]isoxazole], for which the IC50 lay in the range of 1 to 100 nM. In turn, `Cn1ncc2cc(OCc3ncc(-c4nnc(C(F)F)o4)cn3)ccc21` [Compound 138] registered a half-inhibitory concentration (IC50) of 1 to 100 nM.

In turn, `Cn1ncc2cc(OCc3ncc(-c4nnc(C(F)F)o4)cc3F)ccc21` [Compound 139, 2-(difluoromethyl)-5-(5-fluoro-6-(((1-methyl-1H-indazol-5-yl)oxy)methyl)pyridin-3-yl)-1,3,4-oxadiazole] had an IC50 of 1 to 100 nM. On to `Cc1nc2cc(OCc3ncc(-c4nnc(C(F)F)o4)cn3)ccc2o1` [Compound 140], for which the IC50 was 1 to 100 nM. `Cc1nc2cc(OCc3ncc(-c4nnc(C(F)F)o4)cc3F)ccc2o1` [Compound 141] showed an IC50 of 1 to 100 nM. Under `FC(F)c1nnc(-c2cnc(COc3ccc4ocnc4c3)nc2)o1` [Compound 142] stands 1 to 100 nM. Take `FC(F)c1nnc(-c2cnc(COc3cccc4ocnc34)nc2)o1` [Compound 144]: the IC50 fell in the range of 1 to 100 nM.

Regarding `Cn1cnc2cc(OCc3ncc(-c4nnc(C(F)F)o4)cn3)ccc21` [Compound 146], the IC50 was in the range of 1 to 100 nM. The value for `Cn1cnc2cc(OCc3ncc(-c4nnc(C(F)F)o4)cc3F)ccc21` [Compound 147] was 1 to 100 nM; that for `FC(F)c1nnc(-c2cnc(COc3ccc4nccnc4c3)nc2)o1` [Compound 150] was 1 to 100 nM; that for `Fc1cc(-c2nnc(C(F)F)o2)cnc1COc1ccc2nccnc2c1` [Compound 151] was 1 to 100 nM. The molecule `FC(F)c1nnc(-c2cnc(COc3ccc4ncccc4c3)nc2)o1` [Compound 152] had an IC50 of 1 to 100 nM. In turn, `Fc1cc(-c2nnc(C(F)F)o2)cnc1COc1ccc2ncccc2c1` [Compound 153] displayed an IC50 of 1 to 100 nM. As to `FC(F)c1nnc(-c2cnc(COc3ccc4cnccc4c3)nc2)o1` [Compound 154], the IC50 lay in the range of 1 to 100 nM.

With `Fc1cc(-c2nnc(C(F)F)o2)cnc1COc1ccc2cnccc2c1` [Compound 155], the IC50 lay within 1 to 100 nM.

`FC(F)c1nnc(-c2cnc(COc3ccc4ccncc4c3)nc2)o1` [Compound 156] gave an IC50 of 1 to 100 nM.

Molecule `Fc1cc(-c2nnc(C(F)F)o2)cnc1COc1ccc2ccncc2c1` [Compound 157] returned an IC50 of 1 to 100 nM. `FC(F)c1nnc(-c2cnc(COc3cccc4nccnc34)nc2)o1` [Compound 158]: the IC50 was in the range of 1 to 100 nM.

As for `Fc1cc(-c2nnc(C(F)F)o2)cnc1COc1cccc2nccnc12` [Compound 159], the IC50 lay in the range of 1 to 100 nM. With `FC(F)c1nnc(-c2cnc(COc3cccc4cncnc34)nc2)o1` [Compound 160], the IC50 was in the range of 1 to 100 nM.

With `Fc1cc(-c2nnc(C(F)F)o2)cnc1COc1cccc2cncnc12` [Compound 161], the IC50 lay in the range of 1 to 100 nM. As for `FC(F)c1nnc(-c2cnc(COc3cccnc3)nc2)o1` [Compound 162], the IC50 is 1 to 100 nM. The value for `N#Cc1ccc(OCc2ncc(-c3nnc(C(F)F)o3)cn2)cc1` [Compound 164] was 1 to 100 nM; that for `N#Cc1ccc(OCc2ncc(-c3nnc(C(F)F)o3)cc2F)cc1` [Compound 165] was 1 to 100 nM. `Fc1ccc(OCc2ncc(-c3nnc(C(F)F)o3)cn2)cc1` [Compound 166, 2-(difluoromethyl)-5-(2-((4-fluorophenoxy)methyl)pyrimidin-5-yl)-1,3,4-oxadiazole] gave an IC50 of 1 to 100 nM.

Molecule `N#Cc1cccc(OCc2ncc(-c3nnc(C(F)F)o3)cc2F)c1` [Compound 167] had an IC50 of 1 to 100 nM. Take `C#Cc1ccccc1OCc1ncc(-c2nnc(C(F)F)o2)cn1` [Compound 168]: the IC50 was in the range of 1 to 100 nM. In turn, `FC(F)c1nnc(-c2ccc(COc3ccc4c(c3)CCNC4)nc2)o1` [Compound 170] had an IC50 of 100 to 1000 nM. In turn, `Cn1cc2cc(OCc3ncc(-c4nnc(C(F)F)o4)cc3F)ccc2n1` [Compound 178, 2-(Difluoromethyl)-5-(5-fluoro-6-(((2-methyl-2H-indazol-5-yl)oxy)methyl)pyridin-3-yl)-1,3,4-oxadiazole] registered an IC50 of 1 to 100 nM. With `Fc1cc(-c2nnc(C(F)F)o2)cnc1COc1cccc2ncncc12` [Compound 179, 2-(Difluoromethyl)-5-(5-fluoro-6-((quinazolin-5-yloxy)methyl)pyridin-3-yl)-1,3,4-oxadiazole], the IC50 is 1 to 100 nM. In turn, `Fc1cc(-c2nnc(C(F)F)o2)cnc1COc1ccc2cncnc2c1` [Compound 180, 2-(difluoromethyl)-5-(5-fluoro-6-((quinazolin-7-yloxy)methyl)pyridin-3-yl)-1,3,4-oxadiazole] displayed an IC50 of 1 to 100 nM. `Fc1cc(-c2nnc(C(F)F)o2)cnc1COc1ccc2ncncc2c1` [Compound 181, 2-(Difluoromethyl)-5-(5-fluoro-6-((quinazolin-6-yloxy)methyl)pyridin-3-yl)-1,3,4-oxadiazole] had an IC50 of 1 to 100 nM.
